A short description of the experiment: acetaldehyde in saliva of testees during smoking through cigarette holder with filter (headspace gas chromatography). In kind it is in vivo, human. The settings on record: FIG. 1. From the text:
The entire filter of Marlboro Red was removed or, in some tests, 2-3 mm of the original filter was left in the cigarette.
In the tests, ready commercial cigarette holders/mouthpieces of Denicotea, www.denicotea.de were used. In the cigarette holders/mouthpieces, plastic cylinder-shaped “containers” were used, the filtering material being packed in the containers. The original content (intended for the removal of nicotine) of the containers was removed and replaced with the material that was used in the study. The outer dimensions of the container were: diameter 8 mm and length 35 mm.
Cellulose wadding (c. 100 mg), filter paper (Whattman), Commercial filters: Smart (the importer: Altadia Finland Oy) and Ventti (Philip Morris Finland Oy),
Cysteine was dissolved in distilled water, 30-180 mg of L-Cysteine/1 ml. The manufacturer: Fluka, 30089.
The filter material that had been packed in plastic cylinders was moistened with a water-cysteine solution (50-250 μl), and the filter container thus made was placed in the Denicotea cigarette holder. After this, the testees smoked the cigarettes that had been placed in the mouthpieces. During smoking, saliva samples were collected from those participating in the tests and the acetaldehyde in the saliva was analyzed by gas chromatography, Perkin-Elmer, HS40, headspace Gas Chromatograph.

Take `N[C@@H](CS)C(=O)O` [cysteine, L-Cysteine]: the “filterability, dependence on amount” value was “dependent on the amount of cysteine”.

Source of the values: US20100206318A1, “FILTER FOR A TOBACCO PRODUCT” (BIOHIT OYJ, priority 2007, published 2010).
